Experimental data published in US20040058957A1, “Benzothiophene derivatives and herbicidal compositions containing the same” (priority 2000, published 2004).
Blank lines part the entries; values can stand above or below the molecule they belong to.

Experiments:
[1] = system: Scirpus juncoides; assay: Submersion test, treatment 3 days after transplantation: herbicidal effect; assay type: in vivo; details: rated 30 days after application
Procedure: (§1) A mixture consisting of 57 parts by weight of talc and 40 parts by weight of bentonite as carrier and 3 parts by weight of sodium alkylbenzenesulfonate as surfactant was pulverized and mixed uniformly to obtain a carrier for wettable powder. Each herbicidal composition was prepared by uniformly pulverizing and mixing 90 parts by weight of the carrier for wettable powder and 10 parts by weight of the benzothiophene derivative produced in each example.
(§2) Seeds of Scirpus juncoides were sowed onto paddy field soil in a Wagner pot of 1/2000 are. Then, rice seedlings of 2.5 leaf stage were transplanted in the soil. Water was pored into the pot so as to submerge the soil at a depth of 3 cm. The pot was placed in a greenhouse maintained at 20 to 25° C. for vegetation. After 3 days from transplantation of the rice seedlings, a predetermined amount of the herbicidal composition prepared in the step [1] was applied to the pot. After 30 days from the application of the herbicidal composition, the herbicidal effect and injury to the paddy rice were determined.
(§3) The herbicidal effect and the injury to crops in the above tests (1) and (2) were evaluated based on the following ratings.
(§4) The degree of weed control (%) was calculated from the weights of the above-ground parts of fresh weeds in the treated area and the untreated area using the following equation:
(§5) Degree of weed control (%)=[1−(weight of weeds in treated area)/(weight of weeds in untreated area)]×100
(§6) The herbicidal effect was determined according to the following ratings: […]

[2] = system: paddy rice; assay: Submersion test, treatment 3 days after transplantation: injury to paddy rice; assay type: in vivo; parameters: key: 0: No injury; 1: Substantially no injury; 2: Slight injury; 3: Some injury; 4: Remarkable injury; 5: Almost all crops dead; details: rated 30 days after application
Procedure: A mixture consisting of 57 parts by weight of talc and 40 parts by weight of bentonite as carrier and 3 parts by weight of sodium alkylbenzenesulfonate as surfactant was pulverized and mixed uniformly to obtain a carrier for wettable powder. […] Then, rice seedlings of 2.5 leaf stage were transplanted in the soil. Water was pored into the pot so as to submerge the soil at a depth of 3 cm. The pot was placed in a greenhouse maintained at 20 to 25° C. for vegetation. […] After 30 days from the application of the herbicidal composition, the herbicidal effect and injury to the paddy rice were determined. […] The injury to crops was evaluated according to the following ratings: [table]

[3] = system: Scirpus juncoides; assay: Submersion test, treatment 10 days after transplantation: herbicidal effect; assay type: in vivo; details: rated 30 days after application
Procedure: as §1
as §2, with “vegetation. After 10 days from” for “vegetation. After 3 days from”
as §3, §4, §5, §6

Structure (SMILES): CSC1Cc2c(ccc(C(=O)C3C(=O)CCCC3=O)c2Cl)S1(=O)=O (centres unmarked) [Compound No. 1, 4-chloro-2-methylthio-5-(1,3-dioxocyclohex-2-yl)carbonyl-2,3-dihydrobenzothiophene 1,1-dioxide]
Herbicidal effect Scirpus juncoides ([1]; application rate 100 g/ha): 5 (90% or higher (almost completely dead))
Herbicidal effect Scirpus juncoides ([1]; application rate 200 g/ha): 5 (90% or higher (almost completely dead))
Injury paddy rice ([2]; application rate 100 g/ha): 0
Injury paddy rice ([2]; application rate 200 g/ha): 0
Herbicidal effect Scirpus juncoides ([3]; application rate 100 g/ha): 5 (90% or higher (almost completely dead))
Herbicidal effect Scirpus juncoides ([3]; application rate 200 g/ha): 5 (90% or higher (almost completely dead))
melting point: 174.7 to 175.1 °C

Structure (SMILES): CSC1Cc2c(ccc(C(=O)C3C(=O)CCCC3=O)c2C)S1(=O)=O (centres unmarked) [Compound No. 10, 4-methyl-2-methylthio-5-(1,3-dioxocyclohex-2-yl)carbonyl-2,3-dihydrobenzothiophene 1,1-dioxide]
Herbicidal effect Scirpus juncoides ([1]; application rate 100 g/ha): 5 (90% or higher (almost completely dead))
Herbicidal effect Scirpus juncoides ([1]; application rate 200 g/ha): 5 (90% or higher (almost completely dead))
Injury paddy rice ([2]; application rate 100 g/ha): 0
Injury paddy rice ([2]; application rate 200 g/ha): 0
Herbicidal effect Scirpus juncoides ([3]; application rate 100 g/ha): 5 (90% or higher (almost completely dead))
Herbicidal effect Scirpus juncoides ([3]; application rate 200 g/ha): 5 (90% or higher (almost completely dead))
melting point: 192.7 to 193.2 °C

Structure (SMILES): CSC1Cc2c(ccc(C(=O)C3C(=O)CCCC3=O)c2C(F)(F)F)S1(=O)=O (centres unmarked) [Compound No. 11, 2-methylthio-4-trifluoromethyl-5-(1,3-dioxocyclohex-2-yl)carbonyl-2,3-dihydrobenzothiophene 1,1-dioxide]
Herbicidal effect Scirpus juncoides ([1]; application rate 100 g/ha): 5 (90% or higher (almost completely dead))
Herbicidal effect Scirpus juncoides ([1]; application rate 200 g/ha): 5 (90% or higher (almost completely dead))
Injury paddy rice ([2]; application rate 100 g/ha): 0
Injury paddy rice ([2]; application rate 200 g/ha): 0
Herbicidal effect Scirpus juncoides ([3]; application rate 100 g/ha): 5 (90% or higher (almost completely dead))
Herbicidal effect Scirpus juncoides ([3]; application rate 200 g/ha): 5 (90% or higher (almost completely dead))
melting point: 206.1 to 211.6 °C

The next lines start with results.

melting point: 150.3 to 150.5 °C
Structure (SMILES): COC(=O)C(C(=O)OC)C1=C(C(=O)c2ccc3c(c2Cl)CC(SC)S3(=O)=O)C(=O)CCC1 (centres unmarked) [Compound No. 40, 4-chloro-2-methylthio-5-[3-(bis-methoxycarbonyl)methyl-1-oxo-2-cyclohexen-2-yl]carbonyl-2,3-dihydrobenzothiophene 1,1-dioxide]
Herbicidal effect Scirpus juncoides ([1]; application rate 100 g/ha): 4 (70% or higher but less than 90%)
Herbicidal effect Scirpus juncoides ([1]; application rate 200 g/ha): 5 (90% or higher (almost completely dead))
Injury paddy rice ([2]; application rate 100 g/ha): 0
Injury paddy rice ([2]; application rate 200 g/ha): 0
Herbicidal effect Scirpus juncoides ([3]; application rate 100 g/ha): 4 (70% or higher but less than 90%)
Herbicidal effect Scirpus juncoides ([3]; application rate 200 g/ha): 5 (90% or higher (almost completely dead))

melting point: 143.2 to 154.8 °C
Structure (SMILES): CCSC1Cc2c(Cl)c(C(=O)C3C(=O)CCCC3=O)cc(C)c2S1(=O)=O (centres unmarked) [Compound No. 44, 4-chloro-7-methyl-2-ethylthio-5-(1,3-dioxocyclohex-2-yl)carbonyl-2,3-dihydrobenzothiophene 1,1-dioxide]
Herbicidal effect Scirpus juncoides ([1]; application rate 100 g/ha): 5 (90% or higher (almost completely dead))
Herbicidal effect Scirpus juncoides ([1]; application rate 200 g/ha): 5 (90% or higher (almost completely dead))
Injury paddy rice ([2]; application rate 100 g/ha): 0
Injury paddy rice ([2]; application rate 200 g/ha): 0
Herbicidal effect Scirpus juncoides ([3]; application rate 100 g/ha): 5 (90% or higher (almost completely dead))
Herbicidal effect Scirpus juncoides ([3]; application rate 200 g/ha): 5 (90% or higher (almost completely dead))
